# Source: patent US20240287042A1, “NOVEL COMPOUND HAVING INHIBITORY ACTIVITY AGAINST PENDRIN, AND PHARMACEUTICAL USES THEREOF” (UIF (University Industry Foundation), Yonsei University, priority 2021, published 2024)
# Target: T1, human wild-type (WT)-pendrin (Homo sapiens, UniProt O43511)
# T1 construct: expressed in transfected cells
# T1 sequence (O43511 1-780): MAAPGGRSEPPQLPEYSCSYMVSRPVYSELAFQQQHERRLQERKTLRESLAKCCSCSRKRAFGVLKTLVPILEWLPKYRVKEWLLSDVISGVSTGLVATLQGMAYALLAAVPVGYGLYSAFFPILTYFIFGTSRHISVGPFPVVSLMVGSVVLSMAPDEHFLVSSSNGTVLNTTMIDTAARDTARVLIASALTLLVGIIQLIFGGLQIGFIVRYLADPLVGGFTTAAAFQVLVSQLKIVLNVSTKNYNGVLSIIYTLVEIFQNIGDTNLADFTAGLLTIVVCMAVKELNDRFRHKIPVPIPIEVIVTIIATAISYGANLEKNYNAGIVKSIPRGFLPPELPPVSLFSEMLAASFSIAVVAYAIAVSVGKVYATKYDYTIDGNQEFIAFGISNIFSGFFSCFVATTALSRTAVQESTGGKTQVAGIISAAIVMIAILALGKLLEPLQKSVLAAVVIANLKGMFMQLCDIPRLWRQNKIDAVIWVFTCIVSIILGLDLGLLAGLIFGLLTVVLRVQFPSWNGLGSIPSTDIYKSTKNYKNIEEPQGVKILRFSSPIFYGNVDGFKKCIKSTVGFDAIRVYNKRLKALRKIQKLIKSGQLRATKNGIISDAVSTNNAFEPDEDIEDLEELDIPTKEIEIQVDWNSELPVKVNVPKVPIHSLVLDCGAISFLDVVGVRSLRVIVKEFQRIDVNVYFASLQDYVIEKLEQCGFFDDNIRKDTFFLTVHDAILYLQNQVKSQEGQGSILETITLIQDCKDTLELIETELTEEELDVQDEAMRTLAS
# Assay: Pendrin Cl−/I− exchange inhibitory activity, YFP fluorescence in CHO-K1 cells
# Type: cell-based
# Conditions: CHO-K1; for inhibition at 1 µM: compound concentration 1 μM; for inhibition at 3 µM: compound concentration 3 μM; for inhibition at 10 µM: compound concentration 10 μM; for inhibition at 30 µM: compound concentration 30 μM; for inhibition at 100 µM: compound concentration 100 μM
# Protocol: Chinese hamster ovary (CHO)-K1 cells were cultured in DMEM medium containing 10% fetal bovine serum (FBS), 100 units/ml of penicillin and 100 μg/ml streptomycin. CHO-K1 cells were stably transfected with pcDNA3.1 encoding the halide sensor YFP-H148Q/I152L/F46L and human wild-type (WT)-pendrin.
# (§1) CHO-K1 cells expressing human WT pendrin and YFP-F46L/H148Q/I152L were plated in 96-well microplates at a density of 2×10^4 cells per well, and cultured for 48 hours. Each well of the cell cultured 96-well plate was washed 2 times with 200 μL of PBS, and filled with 50 μL of HEPES buffered solution (140 mM NaCl, 5 mM KCl, 1 mM MgCl2, 1 mM CaCl2), 10 mM glucose and 10 mM HEPES (pH 7.4)). Test compounds (1 μL) were added to a final concentration of 1, 3, 10, 30 and 100 μM. After culturing at 37° C. for 10 minutes, the 96-well plate was located on the FLUOstar Omega Microplate Reader (BMG Labtech, Ortenberg, Germany) for a fluorescence assay. Fluorescence was recorded continuously (400 ms per point) for 1 second (baseline), whereby each well was assayed individually for pendrin-mediated I-influx. Then 50 μL of Na-substituted HEPES buffered solution (replacing NaCl with NaI) was added using a liquid injector at 1 second, and YFP fluorescence was recorded for 5 seconds. The initial iodide influx rate was determined from the initial slope of fluorescence by nonlinear regression, after the injection of iodide.
# as §1, with “Chinese hamster ovary (CHO)-K1 cells were cultured in DMEM medium containing 10% fetal bovine serum (FBS), 100 units/ml of penicillin and 100 μg/ml streptomycin. CHO-K1 cells were stably transfected with pcDNA3.1 encoding the halide sensor YFP-H148Q/I152L/F46L and human wild-type (WT)-pendrin. 3-2: Assay of Cl^−/I^− exchange activity CHO-K1” for “CHO-K1”, “50” for “1, 3, 10, 30 and 100”, “Then,” for “Then”, “NaI-substituted” for “Na-substituted”
inhibition at 1 µM [%],inhibition at 3 µM [%],inhibition at 10 µM [%],inhibition at 30 µM [%],inhibition at 100 µM [%],SMILES
42.8,75.2,97.6,98.1,98.4,"Cc1cccc(Cl)c1N1CCN(C(=O)Cc2c(C(=O)O)[nH]c3ccc(Cl)cc23)CC1 [YPI-A4880, 5-Chloro-3-(2-(4-(2-chloro-6-methylphenyl)piperazin-1-yl)-2-oxoethyl)-1H-indole-2-carboxylic acid]"
< 20,< 20,< 20,< 20,40.2,"O=C(O)c1[nH]c2ccc(Cl)cc2c1CC(=O)N1CCN(c2ccccc2)CC1 [YPI-A4881, 5-Chloro-3-(2-oxo-2-(4-phenylpiperazin-1-yl)ethyl)-1H-indole-2-carboxylic acid]"
< 20,< 20,< 20,< 20,45.3,"CCOc1ccccc1N1CCN(C(=O)Cc2c(C(=O)O)[nH]c3ccc(Cl)cc23)CC1 [YPI-A4882, 5-Chloro-3-(2-(4-(2-ethoxyphenyl)piperazin-1-yl)-2-oxoethyl)-1H-indole-2-carboxylic acid]"
< 20,< 20,< 20,< 20,< 20,"CC1CN(C(=O)Cc2c(C(=O)O)[nH]c3ccc(Cl)cc23)CCN1c1ccccc1 (stereo not drawn) [YPI-A4883, 5-Chloro-3-(2-(3-methyl-4-phenylpiperazin-1-yl)-2-oxoethyl)-1H-indole-2-carboxylic acid]"
< 20,< 20,< 20,< 20,,"CC1(C)CN(c2ccc(Cl)cc2)CCN1C(=O)Cc1c(C(=O)O)[nH]c2ccc(Cl)cc12 [YPI-A4884, 5-Chloro-3-(2-(4-(4-chlorophenyl)-2,2-dimethylpiperazin-1-yl)-2-oxoethyl)-1H-indole-2-carboxylic acid]"
< 20,< 20,69.1,83.7,84.2,"O=C(O)c1[nH]c2ccc(Cl)cc2c1CC(=O)N1CCN(c2ccc(F)cc2Cl)CC1 [YPI-A4885, 5-Chloro-3-(2-(4-(2-chloro-4-fluorophenyl)piperazin-1-yl)-2-oxoethyl)-1H-indole-2-carboxylic acid]"
< 20,< 20,33.7,66.2,79.9,"COc1ccc(Cl)c(N2CCN(C(=O)Cc3c(C(=O)O)[nH]c4ccc(Cl)cc34)CC2)c1 [YPI-A4886, 5-Chloro-3-(2-(4-(2-chloro-5-methoxyphenyl)piperazin-1-yl)-2-oxoethyl)-1H-indole-2-carboxylic acid]"
< 20,50.8,89.3,89.5,89.9,"O=C(O)c1[nH]c2ccc(Cl)cc2c1CC(=O)N1CCN(c2ccc(Cl)cc2Cl)CC1 [YPI-A4887, 5-Chloro-3-(2-(4-(2,4-dichlorophenyl)piperazin-1-yl)-2-oxoethyl)-1H-indole-2-carboxylic acid]"
< 20,< 20,< 20,< 20,68.2,"C[C@@H]1CN(c2ccccc2)CCN1C(=O)Cc1c(C(=O)O)[nH]c2ccc(Cl)cc12 [YPI-A4914, (R)-5-chloro-3-(2-(2-methyl-4-phenylpiperazin-1-yl)-2-oxoethyl)-1H-indole-2-carboxylic acid]"
< 20,< 20,< 20,65.2,93.3,"O=C(O)c1[nH]c2ccc(Cl)cc2c1CC(=O)N1CCN(c2ccc(F)cc2F)CC1 [YPI-A4915, 5-Chloro-3-(2-(4-(2,4-difluorophenyl)piperazin-1-yl)-2-oxoethyl)-1H-indole-2-carboxylic acid]"
< 20,45.7,82.6,90.9,91.4,"O=C(O)c1[nH]c2ccc(Cl)cc2c1CC(=O)N1CCN(c2cc(Cl)c(Cl)c(Cl)c2)CC1 [YPI-A4916, 5-Chloro-3-(2-oxo-2-(4-(3,4,5-trichlorophenyl)piperazin-1-yl)ethyl)-1H-indole-2-carboxylic acid]"
< 20,< 20,< 20,< 20,78.3,"O=C(O)c1[nH]c2ccc(Cl)cc2c1CC(=O)N1CCN(c2ccccc2F)CC1 [YPI-A4917, 5-Chloro-3-(2-(4-(2-fluorophenyl)piperazin-1-yl)-2-oxoethyl)-1H-indole-2-carboxylic acid]"
< 20,34.7,87.5,94.8,95.6,"Cc1c(Cl)cccc1N1CCN(C(=O)Cc2c(C(=O)O)[nH]c3ccc(Cl)cc23)CC1 [YPI-A4918, 5-Chloro-3-(2-(4-(3-chloro-2-methylphenyl)piperazin-1-yl)-2-oxoethyl)-1H-indole-2-carboxylic acid]"
< 20,< 20,< 20,< 20,< 20,"O=C(O)c1ccc(N2CCN(C(=O)Cc3c(C(=O)O)[nH]c4ccc(Cl)cc34)CC2)cc1 [YPI-A4919, 3-(2-(4-(4-Carboxyphenyl)piperazin-1-yl)-2-oxoethyl)-5-chloro-1H-indole-2-carboxylic acid]"
< 20,< 20,< 20,< 20,< 20,"CC(=O)c1ccc(N2CCN(C(=O)Cc3c(C(=O)O)[nH]c4ccc(Cl)cc34)CC2)cc1 [YPI-A4920, 3-(2-(4-(4-Acetylphenyl)piperazin-1-yl)-2-oxoethyl)-5-chloro-1H-indole-2-carboxylic acid]"
< 20,< 20,< 20,72.5,73.8,"CCOc1ccc(N2CCN(C(=O)Cc3c(C(=O)O)[nH]c4ccc(Cl)cc34)CC2)cc1 [YPI-A4921, 5-Chloro-3-(2-(4-(4-ethoxyphenyl)piperazin-1-yl)-2-oxoethyl)-1H-indole-2-carboxylic acid]"
< 20,34.1,70.8,81.9,91.5,"CC(C)(C)c1ccc(N2CCN(C(=O)Cc3c(C(=O)O)[nH]c4ccc(Cl)cc34)CC2)cc1 [YPI-A4943, 3-(2-(4-(4-(Tert-butyl)phenyl)piperazin-1-yl)-2-oxoethyl)-5-chloro-1H-indole-2-carboxylic acid]"
